We go through eleven compounds from patent publication US6500853B1, “Inhibitors of phospholipase enzymes” (Genetics Institute, LLC, priority 1998, dated 2002).

The target of this assay is T1, cPLA2 (Homo sapiens, UniProt P47712).
T1 sequence (P47712 1-749): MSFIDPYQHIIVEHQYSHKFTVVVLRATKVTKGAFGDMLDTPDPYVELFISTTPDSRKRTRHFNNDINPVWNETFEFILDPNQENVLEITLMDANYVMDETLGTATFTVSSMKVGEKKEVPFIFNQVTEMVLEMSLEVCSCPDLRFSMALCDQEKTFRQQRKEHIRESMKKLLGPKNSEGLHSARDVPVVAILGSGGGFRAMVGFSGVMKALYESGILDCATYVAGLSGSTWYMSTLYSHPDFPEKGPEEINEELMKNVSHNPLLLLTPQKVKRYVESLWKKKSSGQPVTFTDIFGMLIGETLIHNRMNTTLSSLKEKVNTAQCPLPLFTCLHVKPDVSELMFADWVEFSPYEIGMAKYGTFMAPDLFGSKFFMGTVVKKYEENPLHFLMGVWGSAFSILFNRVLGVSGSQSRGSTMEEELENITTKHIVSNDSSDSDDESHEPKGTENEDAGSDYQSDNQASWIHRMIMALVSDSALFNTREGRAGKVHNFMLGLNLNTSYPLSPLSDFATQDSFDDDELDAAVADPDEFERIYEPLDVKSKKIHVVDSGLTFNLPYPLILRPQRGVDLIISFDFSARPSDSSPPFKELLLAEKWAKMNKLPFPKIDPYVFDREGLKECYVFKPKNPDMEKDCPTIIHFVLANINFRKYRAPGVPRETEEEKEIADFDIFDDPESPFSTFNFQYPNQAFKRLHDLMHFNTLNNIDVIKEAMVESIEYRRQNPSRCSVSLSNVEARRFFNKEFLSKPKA
Briefly: Coumarin Assay (cPLA2 inhibition). The format is biochemical. The note with it: for inhibition at 50 µM: CONCENTRATION 50 micromolar; for inhibition at 80 µM: CONCENTRATION 80 micromolar. Here is the method: Table I reports data for the compounds described in the examples above in cPLA2 inhibition assays (described below). In the data columns of Tables I and II, assay results are reported as a percent inhibition at the concentration specified.
7-hydroxycoumarinyl 6-heptenoate was used as a monomeric substrate for cPLA2 as reported previously (Huang, Z. et al., 1994, Nalytical Biochemistry 222, 110-115). Inhibitors were mixed with 200 μL assay buffer (80 mM Heped, pH 7.5, 1 mM EDTA) containing 60 μM 7-hydroxycoumarinyl 6-heptenoate. The reaction was initiated by adding 4 μg cPLA2 in 50 μL assay buffer. Hydrolysis of the 7-hydroxycounarimyl 6-heptenoate ester was monitored in a fluorometer by exciting at 360 nm and monitoring emission at 460 nm. Enzyme activity is proportional to the increase in emission at 460 nm per minute. In the presence of a cPLA2 inhibitor, the rate of increase is less. The percent inhibition for corresponding concentrations of compounds herein in this Coumarin assay are provided below in Table I.

Each structure is given as a SMILES string.

By inhibition is commonly meant how much of the control response was suppressed. `Cc1c(CCSc2ccc(CCC(=O)O)cc2)c2cc(Cl)ccc2n1C(c1ccccc1)c1ccccc1` [Example 170, 3-(4 {[2-(1-benzhydryl-5-chloro-2-methyl-1H-indol-3-yl)ethyl]sulfanyl}phenyl)propanoic acid]: where the note is “Conc 0.5 uM, read-out: % Inhibition”, the inhibition at 0.5 µM was determined as 50%.

For the compound `CCCn1cc(Cc2ccc(C(=O)O)cc2OC)c2cc(NC(=O)OC3CCCC3)ccc21` [Example 1, 4-[(5-{[(cyclopentyloxy)carbonyl]amino}-1-propyl-1H-indol-3-yl)methyl]-3-methoxybenzoic acid], the inhibition at 50 µM (read-out: PERCENT INHIBITION @) worked out at 7%. Also, the inhibition at 100 µM (CONCENTRATION 100 micromolar, read-out: PERCENT INHIBITION @) is 18%. Further, the inhibition at 170 µM (CONCENTRATION 170 micromolar, read-out: PERCENT INHIBITION @) came out at 50%.

As to `Cc1c(C(=O)Nc2cc(C(=O)O)cc(C(=O)O)c2)c2cc(OCc3ccccc3)ccc2n1Cc1ccc2ccccc2c1` [Example 110, 5-({[5-(benzyloxy)-2-methyl-1-(2-naphthylmethyl)-1H-indol-3-yl]carbonyl}amino)isophthalic acid], the inhibition at 46 µM (CONCENTRATION 46 micromolar, read-out: PERCENT INHIBITION @) was 50%. The inhibition at 47 µM (CONCENTRATION 47 micromolar, read-out: PERCENT INHIBITION @) turned out to be 50%.

Regarding `Cc1c(Cc2ccc(C(=O)O)cc2)c2cc(Cl)ccc2n1C(c1ccccc1)c1ccccc1` [Example 88, 4-[(1-benzhydryl-5-chloro-2-methyl-1H-indol-3-yl)methyl]benzoic acid], under “CONCENTRATION 1.25 micromolar”, the “PERCENT INHIBITION @” value is reported as 53%. The inhibition at 1.25 µM (CONCENTRATION 1.25 micromolar, read-out: PERCENT INHIBITION @) was 50%. The inhibition at 1.32 µM (CONCENTRATION 1.32 micromolar, read-out: PERCENT INHIBITION @) amounted to 50%.

Take `COc1ncc(C(c2ccccc2)n2cc(Cc3ccc(C(=O)O)cc3OC)c3ccc(Cl)cc32)c(OC)n1` (stereo not drawn) [Example 136, 4-({6-chloro-1-[(2,4-dimethoxy-5-pyrimidinyl)(phenyl)methyl]-1H-indol-3-yl}methyl)-3-methoxybenzoic acid]: under “CONCENTRATION 0.4 micromolar, read-out: PERCENT INHIBITION @”, the inhibition at 0.4 µM came out at 50%.

In the case of `Cc1c(C(=O)O)c2cc(OCc3ccccc3)ccc2n1Cc1ccc(C(F)(F)F)cc1C(F)(F)F` [Example 107, 5-(benzyloxy)-1-[2,4-bis(trifluoromethyl)benzyl]-2-methyl-1H-indole-3-carboxylic acid], the inhibition at 37 µM (CONCENTRATION 37 micromolar, read-out: PERCENT INHIBITION @) amounted to 50%. Also, under “read-out: PERCENT INHIBITION @”, the inhibition at 50 µM is 43% and the inhibition at 80 µM was determined as 50%. The inhibition at 71 µM (CONCENTRATION 71 micromolar, read-out: PERCENT INHIBITION @) was 50%.

As for `COc1cc(C(=O)O)ccc1Cc1cn(CC2CC2)c2ccc(NC(=O)OC3CCCC3)cc12` [Example 5, 4-{[5-{[(cyclopentyloxy)carbonyl]aminol}-1-(cyclopropylmethyl)-1H-indol-3-yl]methyl}-3-methoxybenzoic acid], the “PERCENT INHIBITION @” value is 41% (CONCENTRATION 100 micromolar) and 50% (CONCENTRATION 120 micromolar).

Take `O=C(O)Cc1cn(CC2CC2)c2ccc(-c3cccs3)cc12` [Example 78, 2-[1-(cyclopropylmethyl)-5-(2-thienyl)-1H-indol-3-yl]acetic acid]: where the note is “read-out: PERCENT INHIBITION @”, the inhibition at 80 µM was 50%. Besides, the inhibition at 110 µM (CONCENTRATION 110 micromolar, read-out: PERCENT INHIBITION @) was 50%.

`COc1cc(C(=O)O)ccc1Cc1cn(C(c2ccccc2)c2ccc(N)cc2)c2cc(Cl)ccc12` (stereo not drawn) [Example 132, ′4-({1-[(4-aminophenyl)(phenyl)methyl]-6-chloro-1H-indol-3-yl}methyl)-3-methoxybenzoic acid]: the “PERCENT INHIBITION @” value (CONCENTRATION 0.4 micromolar) was found to be 50%.

In the case of `COc1ccc(C(c2ccc(OC)cc2)n2cc(Cc3ccc(C(=O)O)cc3OC)c3ccc(Cl)cc32)cc1` [Example 134, ′4-({1-[bis(4-methoxyphenyl)methyl]-6-chloro-1H-indol-3-yl}methyl)-3-methoxybenzoic acid], the “PERCENT INHIBITION @” value (CONCENTRATION 0.8 micromolar) came out at 50%.

As to `COc1cc(C(=O)O)ccc1Cc1cn(C(c2ccccc2)c2ccccc2)c2cc(Cl)ccc12` [Example 137, ′4-[(1-benzhydryl-6-chloro-1H-indol-3-yl)methyl]-3-methoxybenzoic acid], for the setting “CONCENTRATION 0.8 micromolar”, the “PERCENT INHIBITION @” value was determined as 50%.
